Key:
Format in all cases: biochemical
JAK2 = target: T1, JAK2 (Homo sapiens, UniProt O60674); assay: JAK2 inhibition (Table 4); details: read-out: JAK2 Ki
T1 construct: made in house; host or cells: SF9 insect cells (baculovirus)

JAK3 = target: T2, JAK3 (Homo sapiens, UniProt P52333); assay: JAK3 inhibition (Table 4); details: read-out: JAK3 Ki
T2 construct: made in house; host or cells: SF9 insect cells (baculovirus)

TYK2 = target: T3, TYK2 (Homo sapiens, UniProt P29597); assay: TYK2 inhibition (Table 4)
T3 construct: made in house; host or cells: SF9 insect cells (baculovirus)
T3 sequence (P29597 873-1187): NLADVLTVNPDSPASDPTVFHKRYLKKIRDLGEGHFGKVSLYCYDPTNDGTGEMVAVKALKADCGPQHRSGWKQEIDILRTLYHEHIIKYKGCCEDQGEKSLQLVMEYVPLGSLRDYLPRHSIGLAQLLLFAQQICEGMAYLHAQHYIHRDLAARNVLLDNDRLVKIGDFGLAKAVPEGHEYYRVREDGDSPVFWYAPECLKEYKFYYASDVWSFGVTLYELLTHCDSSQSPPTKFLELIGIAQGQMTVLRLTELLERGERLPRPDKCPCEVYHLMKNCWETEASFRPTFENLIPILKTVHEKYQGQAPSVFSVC

T2 sequence (P52333 783-1124): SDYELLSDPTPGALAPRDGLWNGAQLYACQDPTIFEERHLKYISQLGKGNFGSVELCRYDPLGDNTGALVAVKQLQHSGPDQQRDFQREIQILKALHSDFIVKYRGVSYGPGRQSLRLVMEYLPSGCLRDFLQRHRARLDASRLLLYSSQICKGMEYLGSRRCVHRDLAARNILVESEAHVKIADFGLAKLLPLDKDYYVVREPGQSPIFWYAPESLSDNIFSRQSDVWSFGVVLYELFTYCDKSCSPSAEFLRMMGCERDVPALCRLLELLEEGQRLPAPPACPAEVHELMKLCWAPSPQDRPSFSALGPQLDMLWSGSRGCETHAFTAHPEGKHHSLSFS
T1 sequence (O60674 812-1132): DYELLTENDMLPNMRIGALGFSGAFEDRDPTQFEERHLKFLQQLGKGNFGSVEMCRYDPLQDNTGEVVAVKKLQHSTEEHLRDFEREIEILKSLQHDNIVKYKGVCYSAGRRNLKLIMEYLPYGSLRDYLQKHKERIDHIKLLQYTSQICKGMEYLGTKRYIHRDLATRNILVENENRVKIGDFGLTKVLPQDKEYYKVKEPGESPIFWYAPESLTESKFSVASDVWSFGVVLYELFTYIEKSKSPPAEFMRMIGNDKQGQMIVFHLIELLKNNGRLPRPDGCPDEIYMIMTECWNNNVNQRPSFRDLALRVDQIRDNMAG

SMILES	Ki (JAK2)	Ki (JAK3)	Ki (TYK2)
CC(C)(C)OC(=O)NC1CCC(n2cnc3cnc4[nH]ccc4c32)C1 (racemic) [Example 137, Racemic trans [3-(6H-1,2,3,5,6-Tetraaza-as-indacen-1-yl)-cyclopentyl]-carbamic acid tert-butyl ester]	0.00951 µM	0.0371 µM	0.12 µM
CC(C)(C)OC(=O)NC1CCC(n2cnc3cnc4[nH]ccc4c32)C1 (racemic) [Example 138, Racemic cis[3-(6H-1,2,3,5,6-Tetraaza-as-indacen-1-yl)-cyclopentyl]-carbamic acid tert-butyl ester]	0.0277 µM	0.143 µM	0.222 µM
O=C(CC(F)(F)F)NC1CCC(n2nnc3cnc4[nH]ccc4c32)C1 (racemic) [Example 619, Racemic trans 3,3,3-trifluoro-N-[3-(6H-1,2,3,5,6-pentaaza-as-indacen-1-yl)-cyclopentyl]-propionamide]	0.0146 µM	0.0311 µM	0.118 µM
COC(=O)NC1CCC(n2cnc3cnc4[nH]ccc4c32)C1 (racemic) [Example 734, [3-(6H-1,3,5,6-Tetraaza-as-indacen-1-yl)-cyclopentyl]-carbamic acid methyl ester]	0.00806 µM	0.0543 µM	0.0285 µM
CN1CCCCC1C(=O)N1CCC(n2cnc3cnc4[nH]ccc4c32)CC1 (single isomer, unassigned) [Example 196, (1-Methyl-piperidin-2-yl)-[4-(6H-1,2,3,5,6-tetraaza-as-indacen-1-yl)-piperidin-1-yl]-methanone]	0.0946 µM	1.98 µM	0.295 µM
CN1CCCCC1C(=O)N1CCC(n2cnc3cnc4[nH]ccc4c32)CC1 (single isomer, unassigned) [Example 196a, (1-Methyl-piperidin-2-yl)-[4-(6H-1,2,3,5,6-tetraaza-as-indacen-1-yl)-piperidin-1-yl]-methanone]	1.34 µM		
c1cc2c(ncc3ncn(C4CCNCC4)c32)[nH]1 [Example 28, 1-Piperidin-4-yl-1,6-dihydro-1,3,5,6-tetraaza-as-indacene]		0.217 µM	0.0801 µM
N#CCC(=O)N1CCC(n2cnc3cnc4[nH]ccc4c32)CC1 [Example 33, 3-Oxo-3-[4-(6H-1,3,5,6-tetraaza-as-indacen-1-yl)-piperidin-1-yl]propionitrile]	0.035 µM	0.162 µM	0.143 µM
O=C(c1ccccc1)N1CCC(n2cnc3cnc4[nH]ccc4c32)CC1 [Example 35, Phenyl-[4-(6H-1,3,5,6-tetraaza-as-indacen-1-yl)-piperidin-1-yl]methanone]	0.0261 µM	0.692 µM	0.165 µM
CN(C)CC(=O)N1CCC(n2cnc3cnc4[nH]ccc4c32)CC1 [Example 36, 2-Dimethylamino-1-[4-(6H-1,3,5,6-tetraaza-as-indacen-1-yl)-piperidin-1-yl]ethanone]	0.242 µM	1.62 µM	1.19 µM
c1ncc(CN2CCC(n3cnc4cnc5[nH]ccc5c43)CC2)cn1 [Example 52, 1-(1-Pyrimidin-5-ylmethyl-piperidin-4-yl)-1,6-dihydro-1,3,5,6-tetraaza-as-indacene]	0.00315 µM	0.00414 µM	0.056 µM
CS(=O)(=O)N1CCC(n2cnc3cnc4[nH]ccc4c32)CC1 [Example 54, 1-(1-Methanesulfonyl-piperidin-4-yl)-1,6-dihydro-1,3,5,6-tetraaza-as-indacene]	0.00299 µM	0.0841 µM	0.0187 µM
O=S(=O)(c1ccccc1)N1CCC(n2cnc3cnc4[nH]ccc4c32)CC1 [Example 55, 1-(1-Benzenesulfonyl-piperidin-4-yl)-1,6-dihydro-1,3,5,6-tetraaza-as-indacene]	0.00659 µM	0.334 µM	0.031 µM
N#CCCN1CCC(n2cnc3cnc4[nH]ccc4c32)CC1 [Example 58, 3-[4-(6H-1,3,5,6-Tetraaza-as-indacen-1-yl)-piperidin-1-yl]propionitrile]	0.001 µM	0.0164 µM	0.00357 µM
CN1CCC[C@H]1C(=O)N1CCC(n2cnc3cnc4[nH]ccc4c32)CC1 [Example 78, ((S)-1-Methyl-pyrrolidin-2-yl)-[4-(6H-1,3,5,6-tetraaza-as-indacen-1-yl)-piperidin-1-yl]methanone]	0.137 µM	1.12 µM	0.436 µM
CC(C)CC(=O)N1CCC(n2cnc3cnc4[nH]ccc4c32)CC1 [Example 83, 3-Methyl-1-[4-(6H-1,3.5,6-tetraaza-as-indacen-1-yl)-piperidin-1-yl]-butan-1-one]	0.051 µM	1.23 µM	0.187 µM
N#Cc1ccnc(N2CCC(n3cnc4cnc5[nH]ccc5c43)CC2)c1 [Example 96, 4-(6H-1,3,5,6-Tetraaza-as-indacen-1-yl)-3,4,5,6-tetrahydro-2H-[1,2′]bipyridinyl-4′-carbonitrile]	0.0197 µM	0.115 µM	0.09 µM

SMILES	Ki (JAK2)	Ki (JAK3)	Ki (TYK2)
CS(=O)(=O)N[C@H]1CC[C@H](n2cnc3cnc4[nH]ccc4c32)CC1 [Example 105, Trans N-[4-(6H-1,3,5,6-tetraaza-as-indacen-1-yl)-cyclohexyl]-methanesulfonamide]	0.00353 µM	0.0231 µM	0.0164 µM
CC(C)(C)OC(=O)N[C@H]1CC[C@H](n2cnc3cnc4[nH]ccc4c32)CC1 [Example 107, Trans [4-(6H-1,3,5,6-tetraaza-as-indacen-1-yl)-cyclohexyl]-carbamic acid tert-butyl ester]	0.02 µM	0.132 µM	0.216 µM
N[C@H]1CC[C@H](n2cnc3cnc4[nH]ccc4c32)CC1 [Example 108, Trans 4-(6H-1,3,5,6-tetraaza-as-indacen-1-yl)-cyclohexylamine]	0.0246 µM	0.035 µM	0.0752 µM
CC(C)(C)OC(=O)N[C@@H]1CC[C@@H](n2cnc3cnc4[nH]ccc4c32)C1 [Example 134, [(1R,3R)-3-(6H-1,2,3,5,6-Tetraaza-as-indacen-1-yl)-cyclopentyl]-carbamic acid tert-butyl ester]	0.00421 µM	0.0328 µM	0.0624 µM
CC(C)(C)OC(=O)N[C@@H]1CC[C@H](n2cnc3cnc4[nH]ccc4c32)C1 [Example 135, [(1R,3S)-3-(6H-1,2,3,5,6-Tetraaza-as-indacen-1-yl)-cyclopentyl]-carbamic acid tert-butyl ester]	0.0203 µM	0.0906 µM	0.161 µM
CC(C)(C)OC(=O)N[C@H]1CC[C@@H](n2cnc3cnc4[nH]ccc4c32)C1 [Example 136, [(1S,3R)-3-(6H-1,2,3,5,6-Tetraaza-as-indacen-1-yl)-cyclopentyl]-carbamic acid tert-butyl ester]	0.0183 µM	0.291 µM	0.147 µM
COC(=O)N(C)[C@H]1CC[C@H](n2cnc3cnc4[nH]ccc4c32)CC1 [Example 143, Trans Methyl-[4-(6H-1,2,3,5,6-tetraaza-as-indacen-1-yl)-cyclohexyl]-carbamic acid methyl ester]	0.00703 µM	0.182 µM	0.0512 µM
FC(F)(F)CN1CCC(n2cnc3cnc4[nH]ccc4c32)CC1 [Example 175, 1-[1-(2,2,2-Trifluoro-ethyl)-piperidin-4-yl]-1,6-dihydro-1,2,3,5,6-tetraaza-as-indacene]	0.0046 µM	0.0381 µM	0.0192 µM
CS(=O)(=O)NCc1nc2cnc3[nH]ccc3c2n1C1CCCCC1 [Example 200, N-(1-Cyclohexyl-1,6-dihydro-1,2,3,5,6-tetraaza-as-indacen-2-ylmethyl)-methanesulfonamide]	0.0454 µM	0.0751 µM	0.0193 µM
N[C@H]1CC[C@H](n2nnc3cnc4[nH]ccc4c32)CC1 [Example 279, 4-(6H-1,2,3,5,6-Pentaaza-as-indacen-1-yl)-cyclohexylamine]		0.239 µM	
N#CCCN[C@H]1CC[C@H](n2nnc3cnc4[nH]ccc4c32)CC1 [Example 280, 3-[4-(6H-1,2,3,5,6-Pentaaza-as-indacen-1-yl)-cyclohexylamino]-propionitrile]		0.127 µM	
C[C@@H](O)c1nc2cnc3[nH]ccc3c2n1[C@@H]1CCCN(CCC#N)C1 [Example 362, 3-{(R)-3-[2-((R)-1-Hydroxy-ethyl)-6H-1,3,5,6-tetraaza-as-indacen-1-yl]-piperidin-1-yl}-propionitrile]		0.461 µM	
O[C@H]1CC[C@H](n2nnc3cnc4[nH]ccc4c32)CC1 [Example 546, trans 4-(6H-1,2,3,5,6-Pentaaza-as-indacen-1-yl)-cyclohexanol]		0.14 µM	
CO[C@H]1CC[C@H](n2c([C@@H](C)O)nc3cnc4[nH]ccc4c32)CC1 [Example 635, Trans (R)-1-[1-(4-methoxy-cyclohexyl)-1,6-dihydro-1,2,3,5,6-tetraaza-as-indacen-2-yl]-ethanol]		0.371 µM	
C[C@@H](O)c1nc2cnc3[nH]ccc3c2n1[C@@H]1CCCN(CCC#N)C1 [Example 663, 3-{(R)-3-[2-((R)-1-Hydroxy-ethyl)-6H-1,2,3,5,6-tetraaza-as-indacen-1-yl]-piperidin-1-yl}-propionitrile]		0.188 µM	
CCC(O)c1nc2cnc3[nH]ccc3c2n1C1CCCCC1 (stereo not drawn) [Example 876, 1-(1-Cyclohexyl-1,6-dihydro-1,3,5,6-tetraaza-as-indacen-2-yl)-propan-1-ol]		0.0357 µM	0.0153 µM
C[C@@H](O)c1nc2cnc3[nH]ccc3c2n1C1CCC(CCC#N)CC1 (stereo partly drawn) [Example 1007, 3-{4-[2-((R)-1-Hydroxy-ethyl)-6H-1,3,5,6-tetraaza-as-indacen-1-yl]-cyclohexyl}-propionitrile]		0.0185 µM	

— US8461328B2, “Tricyclic heterocyclic compounds, compositions and methods of use thereof” (Genentech, Inc., priority 2010, dated 2013)
